The structures appear in SMILES notation.

The assay deals with T1, transforming growth factor-β receptor type-I (TGF-β RI) (Homo sapiens, UniProt P36897).
T1 sequence (P36897 34-503): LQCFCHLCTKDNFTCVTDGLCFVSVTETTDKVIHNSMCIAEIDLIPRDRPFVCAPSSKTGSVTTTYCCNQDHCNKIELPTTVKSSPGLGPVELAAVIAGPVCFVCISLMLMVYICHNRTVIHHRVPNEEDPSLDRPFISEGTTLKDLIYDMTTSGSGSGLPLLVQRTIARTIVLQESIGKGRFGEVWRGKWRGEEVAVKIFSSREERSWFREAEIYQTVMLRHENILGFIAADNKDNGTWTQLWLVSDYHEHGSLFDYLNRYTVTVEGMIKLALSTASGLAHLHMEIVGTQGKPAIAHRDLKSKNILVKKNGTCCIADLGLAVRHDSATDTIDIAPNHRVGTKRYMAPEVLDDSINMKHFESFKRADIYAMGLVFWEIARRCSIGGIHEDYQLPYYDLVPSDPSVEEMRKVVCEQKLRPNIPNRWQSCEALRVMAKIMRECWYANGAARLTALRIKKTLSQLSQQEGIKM
Type of assay: biochemical.

`Oc1ccc(/C=C/c2cc(O)cc(O)c2)cc1` [compound 12, Resveratrol] had an IC50 of 2.21 ± 0.266 µM.
